These are literature values, as cited in patent publication US6793912B2, “Treatment of cancers by inhalation of stable platinum-containing formulations” (Transave Inc., priority 2001, dated 2004).

The conditions of the data set: administered by inhalation vs intravenously.

As for `N.N.[Cl][Pt][Cl]` [Cisplatin, cis-diamminedichloroplatinum(II)], the “dose required to elicit a response in animal models, more effective in the lung than intravenously” value is listed as 10-100 fold.
